Measured values: the supplement of paper PMC10307832

Tests used:
Experiment in all cases: relative viability (nuclei count vs DMSO), 5 days (fraction); higher = more cells survive
[1] = tested on: A-427
Method in brief: (§1)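 Relative viability is defined as nuclei in treated wells over nuclei in vehicle wells. Duplicate plates were run and medians reported. Lung cancer cell lines in 1536-well plates were dosed by pin tool one day after seeding, with one drug or with a fixed anchor-drug dose plus five library-drug doses (not always all listed) in √10 steps, and nuclei were counted after 5 days.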

[2] = tested on: UMC-11
Method in brief: as §1

[3] = tested on: NCI-H838
Method in brief: as §1

[4] = tested on: HARA
Method in brief: as §1

[5] = tested on: ChaGo-K-1
Method in brief: as §1

[6] = tested on: SK-LU-1
Method in brief: as §1

[7] = tested on: ABC-1
Method in brief: as §1

[8] = tested on: NCI-H1993
Method in brief: as §1

[9] = tested on: HCC-366
Method in brief: as §1

[10] = tested on: NCI-H2228
Method in brief: as §1

[11] = tested on: EMC-BAC-2
Method in brief: as §1

[12] = tested on: NCI-H1793
Method in brief: as §1

[13] = tested on: NCI-H1650
Method in brief: as §1

[14] = tested on: NCI-H1944
Method in brief: as §1

[15] = tested on: LC-2-ad
Method in brief: as §1

[16] = tested on: NCI-H2405
Method in brief: as §1

[17] = tested on: HCC-15
Method in brief: as §1

[18] = tested on: NCI-H2009
Method in brief: as §1

[19] = tested on: NCI-H1734
Method in brief: as §1

[20] = tested on: LK-2
Method in brief: as §1

[21] = tested on: COR-L23
Method in brief: as §1

[22] = tested on: HCC-78
Method in brief: as §1

[23] = tested on: NCI-H23
Method in brief: as §1

[24] = tested on: NCI-H2023
Method in brief: as §1

Q: Clc1ccc(Nc2nnc(Cc3ccncc3)c3ccccc23)cc1 [Vatalanib] + Cc1nc(Nc2ncc(C(=O)Nc3c(C)cccc3Cl)s2)cc(N2CCN(CCO)CC2)n1 [Dasatinib] (partner 0.075 µM) was tested. Which relative viability ([1]; first compound 0.04 µM) did it give?
A: 0.784

Q: And the relative viability ([1]; first compound 0.1265 µM)?
A: 0.642

Q: What about the relative viability ([1]; first compound 0.4 µM) of the same compound?
A: 0.638

Q: And the relative viability ([1]; first compound 1.265 µM)?
A: 0.662

Q: What about the relative viability ([1]; first compound 4 µM) of the same compound?
A: 0.732

Q: And the relative viability ([2]; first compound 0.04 µM)?
A: 0.422

Q: What about the relative viability ([2]; first compound 0.1265 µM) of the same compound?
A: 0.496

Q: And the relative viability ([2]; first compound 0.4 µM)?
A: 0.444

Q: What about the relative viability ([2]; first compound 1.265 µM) of the same compound?
A: 0.442

Q: What about the relative viability ([2]; first compound 4 µM) of the same compound?
A: 0.45

Q: What about the relative viability ([3]; first compound 0.04 µM) of the same compound?
A: 0.325

Q: And the relative viability ([3]; first compound 0.1265 µM)?
A: 0.277

Q: And the relative viability ([3]; first compound 0.4 µM)?
A: 0.292

Q: And the relative viability ([3]; first compound 1.265 µM)?
A: 0.275

Q: And the relative viability ([3]; first compound 4 µM)?
A: 0.273

Q: And the relative viability ([4]; first compound 0.04 µM)?
A: 0.265

Q: And the relative viability ([4]; first compound 0.1265 µM)?
A: 0.214

Q: And the relative viability ([4]; first compound 0.4 µM)?
A: 0.284

Q: And the relative viability ([4]; first compound 1.265 µM)?
A: 0.212

Q: What about the relative viability ([4]; first compound 4 µM) of the same compound?
A: 0.248

Q: And the relative viability ([5]; first compound 0.04 µM)?
A: 0.578

Q: And the relative viability ([5]; first compound 0.1265 µM)?
A: 0.541

Q: And the relative viability ([5]; first compound 0.4 µM)?
A: 0.582

Q: And the relative viability ([5]; first compound 1.265 µM)?
A: 0.569

Q: And the relative viability ([5]; first compound 4 µM)?
A: 0.586

Q: What about the relative viability ([6]; first compound 0.04 µM) of the same compound?
A: 0.182

Q: What about the relative viability ([6]; first compound 0.1265 µM) of the same compound?
A: 0.188

Q: What about the relative viability ([6]; first compound 0.4 µM) of the same compound?
A: 0.208

Q: And the relative viability ([6]; first compound 1.265 µM)?
A: 0.184

Q: What about the relative viability ([6]; first compound 4 µM) of the same compound?
A: 0.178

Q: And the relative viability ([7]; first compound 0.04 µM)?
A: 0.722

Q: And the relative viability ([7]; first compound 1.265 µM)?
A: 0.514

Q: What about the relative viability ([7]; first compound 4 µM) of the same compound?
A: 0.581

Q: And the relative viability ([8]; first compound 0.04 µM)?
A: 0.727

Q: And the relative viability ([8]; first compound 0.1265 µM)?
A: 0.651

Q: And the relative viability ([8]; first compound 0.4 µM)?
A: 0.574

Q: And the relative viability ([8]; first compound 1.265 µM)?
A: 0.552

Q: What about the relative viability ([8]; first compound 4 µM) of the same compound?
A: 0.578

Q: And the relative viability ([9]; first compound 0.04 µM)?
A: 0.829

Q: What about the relative viability ([9]; first compound 0.1265 µM) of the same compound?
A: 0.573

Q: And the relative viability ([9]; first compound 0.4 µM)?
A: 0.618

Q: And the relative viability ([9]; first compound 1.265 µM)?
A: 0.586

Q: What about the relative viability ([9]; first compound 4 µM) of the same compound?
A: 0.503

Q: What about the relative viability ([10]; first compound 0.04 µM) of the same compound?
A: 0.494

Q: And the relative viability ([10]; first compound 0.1265 µM)?
A: 0.483

Q: What about the relative viability ([10]; first compound 0.4 µM) of the same compound?
A: 0.595

Q: What about the relative viability ([10]; first compound 1.265 µM) of the same compound?
A: 0.482

Q: What about the relative viability ([10]; first compound 4 µM) of the same compound?
A: 0.447

Q: And the relative viability ([11]; first compound 0.04 µM)?
A: 0.329

Q: And the relative viability ([11]; first compound 0.1265 µM)?
A: 0.31

Q: What about the relative viability ([11]; first compound 0.4 µM) of the same compound?
A: 0.355

Q: And the relative viability ([11]; first compound 1.265 µM)?
A: 0.306

Q: And the relative viability ([11]; first compound 4 µM)?
A: 0.331

Q: And the relative viability ([12]; first compound 0.04 µM)?
A: 0.379

Q: And the relative viability ([12]; first compound 0.1265 µM)?
A: 0.377

Q: And the relative viability ([12]; first compound 0.4 µM)?
A: 0.458

Q: And the relative viability ([12]; first compound 1.265 µM)?
A: 0.349

Q: And the relative viability ([12]; first compound 4 µM)?
A: 0.4

Q: What about the relative viability ([13]; first compound 0.04 µM) of the same compound?
A: 0.346

Q: What about the relative viability ([13]; first compound 0.1265 µM) of the same compound?
A: 0.275

Q: And the relative viability ([13]; first compound 0.4 µM)?
A: 0.354

Q: And the relative viability ([13]; first compound 1.265 µM)?
A: 0.217

Q: What about the relative viability ([13]; first compound 4 µM) of the same compound?
A: 0.289

Q: And the relative viability ([14]; first compound 0.04 µM)?
A: 0.227

Q: What about the relative viability ([14]; first compound 0.1265 µM) of the same compound?
A: 0.228

Q: And the relative viability ([14]; first compound 0.4 µM)?
A: 0.254

Q: What about the relative viability ([14]; first compound 1.265 µM) of the same compound?
A: 0.23

Q: What about the relative viability ([14]; first compound 4 µM) of the same compound?
A: 0.228

Q: What about the relative viability ([15]; first compound 0.04 µM) of the same compound?
A: 0.739

Q: What about the relative viability ([15]; first compound 0.1265 µM) of the same compound?
A: 0.492

Q: And the relative viability ([15]; first compound 1.265 µM)?
A: 0.507

Q: What about the relative viability ([15]; first compound 4 µM) of the same compound?
A: 0.536

Q: What about the relative viability ([16]; first compound 0.04 µM) of the same compound?
A: 0.226

Q: And the relative viability ([16]; first compound 0.1265 µM)?
A: 0.195

Q: What about the relative viability ([16]; first compound 1.265 µM) of the same compound?
A: 0.197

Q: What about the relative viability ([16]; first compound 4 µM) of the same compound?
A: 0.203

Q: And the relative viability ([17]; first compound 0.04 µM)?
A: 0.611

Q: What about the relative viability ([17]; first compound 0.1265 µM) of the same compound?
A: 0.628

Q: What about the relative viability ([17]; first compound 0.4 µM) of the same compound?
A: 0.628

Q: And the relative viability ([17]; first compound 1.265 µM)?
A: 0.524

Q: What about the relative viability ([17]; first compound 4 µM) of the same compound?
A: 0.538

Q: And the relative viability ([18]; first compound 0.04 µM)?
A: 0.288

Q: What about the relative viability ([18]; first compound 0.1265 µM) of the same compound?
A: 0.256

Q: And the relative viability ([18]; first compound 0.4 µM)?
A: 0.35

Q: What about the relative viability ([18]; first compound 1.265 µM) of the same compound?
A: 0.303

Q: What about the relative viability ([18]; first compound 4 µM) of the same compound?
A: 0.283

Q: What about the relative viability ([19]; first compound 0.04 µM) of the same compound?
A: 0.512

Q: And the relative viability ([19]; first compound 0.1265 µM)?
A: 0.432

Q: And the relative viability ([19]; first compound 0.4 µM)?
A: 0.501

Q: What about the relative viability ([19]; first compound 1.265 µM) of the same compound?
A: 0.47

Q: What about the relative viability ([19]; first compound 4 µM) of the same compound?
A: 0.422

Q: And the relative viability ([20]; first compound 0.04 µM)?
A: 0.322

Q: And the relative viability ([20]; first compound 0.1265 µM)?
A: 0.219

Q: What about the relative viability ([20]; first compound 0.4 µM) of the same compound?
A: 0.244

Q: And the relative viability ([20]; first compound 1.265 µM)?
A: 0.27

Q: What about the relative viability ([20]; first compound 4 µM) of the same compound?
A: 0.294

Q: What about the relative viability ([21]; first compound 0.04 µM) of the same compound?
A: 0.502

Q: And the relative viability ([21]; first compound 0.1265 µM)?
A: 0.502

Q: And the relative viability ([21]; first compound 0.4 µM)?
A: 0.651

Q: And the relative viability ([21]; first compound 1.265 µM)?
A: 0.414

Q: What about the relative viability ([21]; first compound 4 µM) of the same compound?
A: 0.519

Q: And the relative viability ([22]; first compound 0.04 µM)?
A: 0.368

Q: And the relative viability ([22]; first compound 0.1265 µM)?
A: 0.325

Q: What about the relative viability ([22]; first compound 0.4 µM) of the same compound?
A: 0.333

Q: And the relative viability ([22]; first compound 1.265 µM)?
A: 0.368

Q: What about the relative viability ([22]; first compound 4 µM) of the same compound?
A: 0.383

Q: And the relative viability ([23]; first compound 0.04 µM)?
A: 0.792

Q: And the relative viability ([23]; first compound 0.1265 µM)?
A: 0.73

Q: What about the relative viability ([23]; first compound 0.4 µM) of the same compound?
A: 0.929

Q: And the relative viability ([23]; first compound 1.265 µM)?
A: 0.772

Q: And the relative viability ([23]; first compound 4 µM)?
A: 0.667

Q: What about the relative viability ([24]; first compound 0.04 µM) of the same compound?
A: 0.671

Q: What about the relative viability ([24]; first compound 0.1265 µM) of the same compound?
A: 0.563

Q: What about the relative viability ([24]; first compound 0.4 µM) of the same compound?
A: 0.653

Q: And the relative viability ([24]; first compound 1.265 µM)?
A: 0.484

Q: What about the relative viability ([24]; first compound 4 µM) of the same compound?
A: 0.482
